Reference: patent US20090036450A1, “PYRAZOLE COMPOUNDS AND USE THEREOF” (JAPAN TOBACCO, INC., priority 2006, published 2009)
Where a name gives a salt, the structure may show the parent alone.

The molecules below were run against T1, human liver glycogen phosphorylase (Homo sapiens, UniProt P06737) (assay: Liver glycogen phosphorylase activity, forward reaction system (NADPH detection at 340 nm)). Settings: enzyme inhibitory activity against recombinant human liver glycogen phosphorylase (Sf9 cell lysate), room temperature, 75 minutes.
T1 construct: made in house; host or cells: Sf9 insect cells (suspension of disrupted cells, diluted in BES buffer, not purified)
T1 sequence (P06737 1-847): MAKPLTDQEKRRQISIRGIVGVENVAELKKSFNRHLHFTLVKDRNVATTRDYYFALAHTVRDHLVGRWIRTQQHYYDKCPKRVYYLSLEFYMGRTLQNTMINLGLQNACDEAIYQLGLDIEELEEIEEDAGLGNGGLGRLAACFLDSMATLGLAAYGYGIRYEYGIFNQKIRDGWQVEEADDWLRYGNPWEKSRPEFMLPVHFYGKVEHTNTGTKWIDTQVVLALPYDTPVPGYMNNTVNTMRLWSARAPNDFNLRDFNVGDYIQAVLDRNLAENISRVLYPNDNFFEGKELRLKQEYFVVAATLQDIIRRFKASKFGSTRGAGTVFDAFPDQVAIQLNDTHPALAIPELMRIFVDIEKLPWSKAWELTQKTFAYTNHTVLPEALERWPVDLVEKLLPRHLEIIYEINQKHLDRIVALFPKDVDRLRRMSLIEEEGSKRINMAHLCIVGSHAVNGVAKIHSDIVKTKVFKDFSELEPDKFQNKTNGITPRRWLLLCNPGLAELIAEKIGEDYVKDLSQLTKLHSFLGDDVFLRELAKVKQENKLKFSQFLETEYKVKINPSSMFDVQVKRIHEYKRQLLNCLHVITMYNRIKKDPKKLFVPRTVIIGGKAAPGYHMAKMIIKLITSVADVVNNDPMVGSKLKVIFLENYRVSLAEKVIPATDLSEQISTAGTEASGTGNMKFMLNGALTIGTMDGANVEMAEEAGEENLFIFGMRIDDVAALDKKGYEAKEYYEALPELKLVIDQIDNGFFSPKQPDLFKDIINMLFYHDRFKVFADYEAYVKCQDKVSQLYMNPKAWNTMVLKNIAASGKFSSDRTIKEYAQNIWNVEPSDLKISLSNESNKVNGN
Type: biochemical
Procedure: The glycogen phosphorylase activity was determined by a method using a forward reaction system.
The following method was used to determine the glycogen phosphorylase activity using a forward reaction system. Glucose-1-phosphate generated from glycogen by glycogen phosphorylase was converted to glucono-δ-lactone-6-phosphate by transphosphorylation and dehydrogenation reactions using phosphoglucomutase and glucose-6-phosphate dehydrogenase (G6PDH). At this time, NADPH generated from NADP in the dehydrogenation reaction by G6PDH was detected.
An enzyme solution of human liver glycogen phosphorylase was obtained by diluting with 100 mmol/L BES buffer (pH 6.8, containing 2 mmol/L EDTA) a suspension disrupted Sf9 cells in which a recombinant human liver glycogen phosphorylase was forcibly expressed. Phosphate buffer (16 mmol/L KH2PO4, containing 24 mmol/L Na2HPO4) was used as a substrate solution. A mixture of 8 U/mL phosphoglucomutase and 60 U/mL G6PDH was prepared with BES buffer. A reaction buffer (1.4 mmol/L NADP, 30 mmol/L MgCl2, 8 μmol/L glucose-1,6-diphosphate, 8 mg/mL glycogen, 40 mmol/L BES, containing 0.8 mmol/L EDTA) and a glucose solution (75 mmol/L glucose and 100 mmol/L BES, containing 2 mmol/L EDTA) were prepared. A test substance was dissolved in 1% DMSO aqueous solution.
To a mixture of the glucose solution (20 μL), the substrate solution (20 μL), the reaction buffer (100 μL), and the test substance (20 μL), the recombinant human liver glycogen phosphorylase solution (20 μL), and a mixture (20 μL) of phosphoglucomutase and G6PDH were added to initiate an enzymatic reaction. To a control, 1% DMSO aqueous solution was added instead of the test substance. A solution to which the substrate was not added was used as a blank. After initiation of the reaction, absorbance at 340 nm was measured immediately. The reaction was performed at room temperature for 75 minutes, and then absorbance at 340 nm was measured again. The enzyme activity was obtained by deducting the change in absorbance of the blank for 75 minutes from the change in absorbance over 75 minutes. The inhibition rate (%) of the test substance was calculated by “(1−(enzyme activity of test substance)/(enzyme activity of control))×100”.
“IC50” represents an enzyme inhibitory activity against human liver glycogen phosphorylase.

| IC50 [nM] | Compound |
| --- | --- |
| < 100 | Cc1ccc(-c2onc(C)c2CNC(=O)c2cc(NC(=O)c3cc(F)c(F)cc3Cl)[nH]n2)cn1 [Example 1-21, 5-(2-chloro-4,5-difluoro-benzoylamino)-1H-pyrazole-3-carboxylic acid [3-methyl-5-(6-methyl-pyridin-3-yl)-isoxazol-4-ylmethyl]-amide] |
| < 100 | O=C(NCc1nnc(-c2cccc(O)c2)o1)c1cc(NC(=O)c2cc(F)c(F)cc2Cl)[nH]n1 [Example 1-57, 5-(2-chloro-4,5-difluoro-benzoylamino)-1H-pyrazole-3-carboxylic acid [5-(3-hydroxy-phenyl)-[1,3,4]oxadiazol-2-ylmethyl]-amide] |
| < 100 | Cc1nc(-c2ccc(F)cc2)c(CNC(=O)c2cc(NC(=O)c3cc(F)c(F)cc3Cl)[nH]n2)o1 [Example 1-25, 5-(2-chloro-4,5-difluoro-benzoylamino)-1H-pyrazole-3-carboxylic acid [4-(4-fluoro-phenyl)-2-methyl-oxazol-5-ylmethyl]-amide] |
| < 100 | Cc1nc(-c2ccc(Cl)s2)sc1CNC(=O)c1cc(NC(=O)c2cc(F)c(F)cc2Cl)[nH]n1 [Example 1-8, 5-(2-chloro-4,5-difluoro-benzoylamino)-1H-pyrazole-3-carboxylic acid [2-(5-chlorothiophen-2-yl)-4-methyl-thiazol-5-ylmethyl]-amide] |
| < 100 | Cc1nc(C2CC2)oc1CNC(=O)c1cc(NC(=O)c2cc(F)c(F)cc2Cl)[nH]n1 [Example 1-39, 5-(2-chloro-4,5-difluoro-benzoylamino)-1H-pyrazole-3-carboxylic acid (2-cyclopropyl-4-methyl-oxazol-5-ylmethyl)-amide] |
| < 100 | Cc1ncc(CNC(=O)c2cc(NC(=O)c3cc(F)c(F)cc3Cl)[nH]n2)c(-c2cccc(F)c2)n1 [Example 1-79, 5-(2-chloro-4,5-difluoro-benzoylamino)-1H-pyrazole-3-carboxylic acid [4-(3-fluoro-phenyl)-2-methyl-pyrimidin-5-ylmethyl]-amide] |
| < 100 | Cc1nc(C(=O)NCc2ccccc2)oc1CNC(=O)c1cc(NC(=O)c2cc(F)c(F)cc2Cl)[nH]n1 [Example 3-16, 5-(2-chloro-4,5-difluoro-benzoylamino)-1H-pyrazole-3-carboxylic acid (2-benzylcarbamoyl-4-methyl-oxazol-5-ylmethyl)-amide] |
| 100 to 300 | NC(=O)Cc1nnc(CNC(=O)c2cc(NC(=O)c3cc(F)c(F)cc3Cl)[nH]n2)o1 [Example 3-20, 5-(2-chloro-4,5-difluoro-benzoylamino)-1H-pyrazole-3-carboxylic acid (5-carbamoylmethyl-[1,3,4]oxadiazol-2-ylmethyl)-amide] |
| < 100 | Cc1nc(Cc2ccccc2)oc1CNC(=O)c1cc(NC(=O)c2cc(F)c(F)cc2Cl)[nH]n1 [Example 1-41, 5-(2-chloro-4,5-difluoro-benzoylamino)-1H-pyrazole-3-carboxylic acid (2-benzyl-4-methyl-oxazol-5-ylmethyl)-amide] |
| < 100 | CN(C)c1ccc(-c2nnc(CNC(=O)c3cc(NC(=O)c4cc(F)c(F)cc4Cl)[nH]n3)o2)cc1 [Example 1-54, 5-(2-chloro-4,5-difluoro-benzoylamino)-1H-pyrazole-3-carboxylic acid [5-(4-dimethylamino-phenyl)-[1,3,4]oxadiazol-2-ylmethyl]-amide] |
| < 100 | CCc1nc(Cc2nc(C)c(CNC(=O)c3cc(NC(=O)c4cc(F)c(F)cc4Cl)[nH]n3)o2)n[nH]1 [Example 1-86, 5-(2-chloro-4,5-difluoro-benzoylamino)-1H-pyrazole-3-carboxylic acid [2-(5-ethyl-1H-[1,2,4]thiazol-3-ylmethyl)-4-methyl-oxazol-5-ylmethyl]-amide hydrochloride] |
| < 100 | Cc1nc(C2CC2)c(CNC(=O)c2cc(NC(=O)c3cc(F)c(F)cc3Cl)[nH]n2)o1 [Example 1-37, 5-(2-chloro-4,5-difluoro-benzoylamino)-1H-pyrazole-3-carboxylic acid (4-cyclopropyl-2-methyl-oxazol-5-ylmethyl)-amide] |
| < 100 | Cc1nc(CO)oc1CNC(=O)c1cc(NC(=O)c2cc(F)c(F)cc2Cl)[nH]n1 [Example 3-24, 5-(2-chloro-4,5-difluoro-benzoylamino)-1H-pyrazole-3-carboxylic acid (2-hydroxymethyl-4-methyl-oxazol-5-ylmethyl)-amide hydrochloride] |
| 100 to 300 | O=C(O)Cc1nnc(CNC(=O)c2cc(NC(=O)c3cc(F)c(F)cc3Cl)[nH]n2)o1 [Example 3-19, 5-(2-chloro-4,5-difluoro-benzoylamino)-1H-pyrazole-3-carboxylic acid (5-carboxymethyl-[1,3,4]oxadiazol-2-ylmethyl)-amide] |
| < 100 | Cc1nc(C23CC4CC(CC(C4)C2)C3)c(CNC(=O)c2cc(NC(=O)c3cc(F)c(F)cc3Cl)[nH]n2)s1 [Example 1-11, 5-(2-chloro-4,5-difluoro-benzoylamino)-1H-pyrazole-3-carboxylic acid (4-adamantan-1-yl-2-methyl-thiazol-5-ylmethyl)-amide] |
| > 300 | Cc1nc(COC(c2ccccc2)(c2ccccc2)c2ccccc2)oc1CNC(=O)c1cc(NC(=O)c2cc(F)c(F)cc2Cl)[nH]n1 [Example 1-43, 5-(2-chloro-4,5-difluoro-benzoylamino)-1H-pyrazole-3-carboxylic acid (4-methyl-2-trityloxymethyl-oxazol-5-ylmethyl)-amide] |
| < 100 | Cc1cc(-c2nnc(CNC(=O)c3cc(NC(=O)c4cc(F)c(F)cc4Cl)[nH]n3)o2)[nH]n1 [Example 1-76, 5-(2-chloro-4,5-difluoro-benzoylamino)-1H-pyrazole-3-carboxylic acid [5-(5-methyl-2H-pyrazol-3-yl)-[1,3,4]oxadiazol-2-ylmethyl]-amide] |
| 100 to 300 | Cc1nc2c(s1)CN(C(=O)c1cc(NC(=O)c3cc(F)c(F)cc3Cl)[nH]n1)CC2 [Example 1-12] |
| < 100 | CCOC(=O)c1ccc(CNC(=O)c2cc(NC(=O)c3cc(F)c(F)cc3Cl)[nH]n2)o1 [Example 1-1, 5-(2-chloro-4,5-difluoro-benzoylamino)-1H-pyrazole-3-carboxylic acid (5-ethoxycarbonyl-furan-2-ylmethyl)-amide] |
| < 100 | CCOC(=O)COCc1nc(C)c(CNC(=O)c2cc(NC(=O)c3cc(F)c(F)cc3Cl)[nH]n2)o1 [Example 1-48, 5-(2-chloro-4,5-difluoro-benzoylamino)-1H-pyrazole-3-carboxylic acid (2-ethoxycarbonylmethoxymethyl-4-methyl-oxazol-5-ylmethyl)-amide] |
| < 100 | Cc1onc(-c2ccc(C#N)cc2)c1CNC(=O)c1cc(NC(=O)c2cc(F)c(F)cc2Cl)[nH]n1 [Example 1-14, 5-(2-chloro-4,5-difluoro-benzoylamino)-1H-pyrazole-3-carboxylic acid [3-(4-cyano-phenyl)-5-methylisoxazol-4-ylmethyl]-amide] |
| < 100 | Cc1nc(C2CCCCC2)oc1CNC(=O)c1cc(NC(=O)c2cc(F)c(F)cc2Cl)[nH]n1 [Example 1-40, 5-(2-chloro-4,5-difluoro-benzoylamino)-1H-pyrazole-3-carboxylic acid (2-cyclohexyl-4-methyl-oxazol-5-ylmethyl)-amide] |
